# From ChEMBL document CHEMBL1649520, “Pharmacokinetics of posaconazole administered orally or by nasogastric tube in healthy volunteers” (Antimicrob Agents Chemother, 2009)
# How the values were obtained:
# [1] = AUC (0 to infinity) in healthy human at […], po; type: ADME, organism-based; set-up: route oral, time infinity; conditions: plasma
# [2] = AUClast in healthy human at […] administered via nasogastric tube by ITT analysis; type: ADME, organism-based; set-up: time 0 - last, route nasogastric; conditions: plasma, po
# [3] = AUClast in healthy human at […], po; type: ADME, organism-based; set-up: time 0 - last, route oral; conditions: plasma
# [4] = Apparent oral clearance in healthy human at […] administered via nasogastric tube; type: ADME, organism-based; set-up: route oral; conditions: in vivo
# [5] = Cmax in healthy human at […], po by ITT analysis; type: ADME, organism-based; set-up: route oral; conditions: in vivo
# [6] = AUC (0 to infinity) in healthy human at […] administered via nasogastric tube by ITT analysis; type: ADME, organism-based; set-up: route nasogastric, time infinity; conditions: plasma, po
# [7] = AUC (0 to infinity) in healthy human at […] administered via nasogastric tube; type: ADME, organism-based; set-up: route nasogastric, time infinity; conditions: plasma, po
# [8] = Cmax in healthy human at […] administered via nasogastric tube by ITT analysis; type: ADME, organism-based; set-up: route nasogastric; conditions: in vivo, po
# [9] = Cmax in healthy human at 400 mg, po; conditions: in vivo
# [10] = Tmax in healthy human at 400 mg, po; conditions: in vivo
# [11] = AUClast in healthy human at […], po by ITT analysis; type: ADME, organism-based; set-up: time 0 - last, route oral; conditions: plasma
# [12] = Apparent oral clearance in healthy human at […], po; type: ADME, organism-based; set-up: route oral; conditions: in vivo
# [13] = Cmax in healthy human at […] administered via nasogastric tube; type: ADME, organism-based; set-up: route nasogastric; conditions: in vivo, po
# [14] = AUC (0 to infinity) in healthy human at […], po by ITT analysis; type: ADME, organism-based; set-up: time infinity, route oral; conditions: plasma
# [15] = AUClast in healthy human at […] administered via nasogastric tube; type: ADME, organism-based; set-up: route nasogastric, time 0 - last; conditions: plasma, po
# [16] = Terminal half life in healthy human at […] administered via nasogastric tube; type: ADME, organism-based; conditions: in vivo
# [17] = Tmax in healthy human at […] administered via nasogastric tube; type: ADME, organism-based; conditions: in vivo
# [18] = Terminal half life in healthy human at […], po; type: ADME, organism-based; set-up: route oral; conditions: in vivo
# [19] = Elimination rate in healthy human at […] administered via nasogastric tube; type: ADME, organism-based; conditions: in vivo
# [20] = Elimination rate in healthy human at […], po; type: ADME, organism-based; set-up: route oral; conditions: in vivo
compound,measurement,setting,value
CC[C@@H]([C@H](C)O)n1ncn(-c2ccc(N3CCN(c4ccc(OC[C@@H]5CO[C@@](Cn6cncn6)(c6ccc(F)cc6F)C5)cc4)CC3)cc2)c1=O [POSACONAZOLE],AUC(0-inf),[1],10.9 µg·h/mL
same,AUC(0-t),[2],6.95 µg·h/mL
same,AUC(0-t),[3],10.4 µg·h/mL
same,CL/F,[4],990 mL/min
same,Cmax,[5],0.289 µg/mL
same,AUC(0-inf),[6],7.21 µg·h/mL
same,AUC(0-inf),[7],8.4 µg·h/mL
same,Cmax,[8],0.233 µg/mL
same,Cmax,[9],0.324 µg/mL
same,Tmax,[10],4 h
same,AUC(0-t),[11],9.1 µg·h/mL
same,CL/F,[12],822 mL/min
same,Cmax,[13],0.266 µg/mL
same,AUC(0-inf),[14],9.39 µg·h/mL
same,AUC(0-t),[15],8.03 µg·h/mL
same,half-life,[16],23.7 h
same,Tmax,[17],4 h
same,half-life,[18],21.6 h
same,k el,[19],8.61e-06 s⁻¹
same,k el,[20],9.72e-06 s⁻¹
